Experimental findings from US20020016358A1, “Cosmetic composition” (NOF CORPORATION, priority 2000, published 2002) are described below.

For assay [1], the system named is human melanoma cell (HM3KO). Briefly: Suppression of melanin formation in human melanoma cell (HM3KO). The assay is classed as cell-based. Particulars: sample 10 μM in medium, cultivation 6 days, absorbance 410 nm of cell lysate, no addition = 100%. The method, then: (Confirmation of Whitening Effect-1: Suppression of Melanin Formation) Using the obtained compounds of formulae (II) to (V), the effect of suppressing melanin production of human melanoma cell (HM3KO) was examined in vitro. More specifically, HM3KO was cultured to about 5×10^5 by a conventional method, collected by centrifugation to obtain pellets, and inoculated the pellet to a culture dish of 10 cm diameter containing an Eagle's medium supplemented with 10% fetal bovine serum and cultured at 37° C. for 24 hours. Thereafter, each polymethoxyflavone of formulae (II) to (V) was added, or kojic acid or arbutin for comparison was added thereto so that the final addition concentration was 10 μM, followed by cultivation for 6 days. After the cultivation, cells were collected by centrifugation, and 1 ml of 2N sodium hydroxide aqueous solution was added thereto to obtain cell lysate. The absorbance in a wavelength of 410 nm of the cell lysate was measured with a spectrophotometer. Here, the absorbance of the cell lysate to which a sample is not added is defined as 100% of the melanin production ratio, and the melanin production ratios are shown as relative values, measuring the absorbance of each cell lysate.

The test system of assay [2] is UV-induced pigmentation. Kind of assay: Suppression of UV-induced pigmentation in brown guinea pigs. The assay is classed as in vivo. Particulars: 40 μl twice a day, after UV 0.5 J/cm2; for Pigmentation degree ΔL, After 40 days: no addition −5.2; for Pigmentation degree ΔL, After 20 days: no addition −7.8. The method, then:
(Confirmation of Whitening Effect-2: Suppression of UV-induced Pigmentation)
Using brown guinea pigs, the suppression of UV-induced pigmentation was examined in vivo. More specifically, the backs of the brown guinea pigs were shaved and covered with an ultraviolet shielding plate provided with 6 rectangular holes of 2×2 cm, followed by irradiation of UV (0.5 J/cm^2) to induce pigmentation. Thereafter, 40 μl of 70% (W/W) ethanol aqueous solution containing each of polymethoxyflavone (nobiletin) of formula (III) or polymethoxyflavone (tangeretin) of formula (IV) in a concentration shown in Table 2 were applied twice a day. Then, the degrees of pigmentation before and after the application were measured.
In Table 2, the pigmentation degree ΔL was obtained by measuring a L value before UV irradiation, which is defined as 0, with a spectrophotometric calorimeter, and obtaining the difference between the L values before and after UV irradiation. A lower value ΔL corresponds to a higher pigmentation degree.

[3] abbreviates: sample concentration 0.4% in 70% ethanol.
Setting [4] is: sample concentration 4% in 70% ethanol, lower ΔL = more pigmentation.
Setting [5] is: sample concentration 4% in 70% ethanol.

As for `OC[C@H]1O[C@@H](Oc2ccc(O)cc2)[C@H](O)[C@@H](O)[C@@H]1O` [Arbutin, reference compound], the “Melanin production ratio (% of control)” value in assay [1] is reported as 97 % of control.

With `O=c1cc(CO)occ1O` [Kojic acid, reference compound], the “Melanin production ratio (% of control)” value in assay [1] is listed as 96 % of control.

Regarding `COc1ccc(-c2oc3c(OC)c(OC)c(OC)c(OC)c3c(=O)c2OC)cc1OC` [formula (II), 3,5,6,7,8,3′,4′-heptamethoxyflavone], in assay [1], the “Melanin production ratio (% of control)” value was 65 % of control.

On to `COc1ccc(-c2cc(=O)c3c(OC)c(OC)c(OC)c(OC)c3o2)cc1OC` [formula (III), 5,6,7,8,3′,4′-hexamethoxyflavone], for which, in assay [1], the “Melanin production ratio (% of control)” value is 35 % of control. Further, the figures for the “Pigmentation degree ΔL, After 40 days” value in assay [2] (setting [3]) and in assay [2] (setting [5]) were −3.2 and −1.9, respectively. In addition, the “Pigmentation degree ΔL, After 20 days” value in assay [2] (setting [3]) was −5.5; in assay [2] (setting [4]) it was −5.1.

As for `COc1ccc(-c2cc(=O)c3c(OC)c(OC)c(OC)c(OC)c3o2)cc1` [formula (IV), 5,6,7,8,4′-pentamethoxyflavone], the “Melanin production ratio (% of control)” value in assay [1] is on record as 55 % of control. For the same compound, the “Pigmentation degree ΔL, After 40 days” value in assay [2] (setting [3]) is given as −3.5; in assay [2] (setting [5]) it was −3.3. Further, the “Pigmentation degree ΔL, After 20 days” value in assay [2] (setting [3]) was −6.1; in assay [2] (setting [4]), −5.6.

In the case of `COc1ccc(-c2cc(=O)c3c(OC)cc(OC)c(OC)c3o2)cc1OC` [formula (V), 5,7,8,3′,4′-pentamethoxyflavone], the “Melanin production ratio (% of control)” value in assay [1] is recorded as 60 % of control.
